Test system: mouse liver microsomes with NADPH, percent remaining
Assay: High Content Assay for Compounds that inhibit the Assembly of the Perinucleolar Compartment: Mouse Liver Microsome Stability with NADPH
Settings: stronger effect = lower value
Source text: The perinucleolar compartment (PNC) is a non-membrane-bound nuclear subdomain that is associated with but structurally distinct from the nucleolus. The PNC is a heritable trait, in which the number of PNCs per cell in daughter cells often mimics that of their mother cells. The PNC is heterogeneous in shape, is stable through interphase, disassembles during mitosis, and reassembles in early G1. The PNC is concentrated with newly synthesized RNA polymerase III (pol III) RNAs (MRP RNA, RNAse P H1 RNA, hY RNAs[hY1, 2, 5], Alu RNA, and SRP [7SL] RNA) and RNA binding proteins (nucleolin, PTB, CUG-BP, KSRP, Raver1, Raver2, and Rod).
Extensive in vitro studies have shown that the PNC is unique to tumor cells and preferentially forms in tumor cells derived from solid tissues. Examination of cancer cell lines from various origins and malignant capacities has shown that PNC prevalence correlates with the malignancy of tumors and has the potential to be developed as a pan-cancer prognostic marker.
Mouse liver microsomes are generated from lysed mouse liver. […]
1uM of compound in incubated in mouse liver microsome; the reference compound is ketanserin. […] Samples are analyzed with LC-MS/MS.

With `N=c1c2c(-c3ccccc3)c(-c3ccccc3)n(Cc3ccccc3)c2ncn1C1CCC(O)CC1` (stereo unspecified) the percent remaining was 107%.

Reference: PubChem BioAssay AID602445 (National Center for Advancing Translational Sciences (NCATS), 2012)
